According to patent US8367620B2, “Peptidic growth hormone secretagogues analog compounds and preparations thereof” (Centro de Ingenieria Genetica y Biotecnologia, priority 2006, dated 2013):
Where two headings read alike, the source gives them in different places. Where no end group is shown, it is not given here.

Experiments:
[1] = tested on: tilapia Oreochromis sp. larvae; assay: Growth stimulation of tilapia larvae by immersion; format: in vivo; details: immersion 100 μg/L, one hour twice a week, three weeks
Experimental: (§1) Growth stimulation experiments on tilapia Oreochromis sp. larvae were performed evaluating groups of 100 larvae with 0.01 g average, using the peptidic GHS analogs, in a 100 μg/L concentration, twice a week using an immersion time of one hour.

[2] = tested on: PC12 cells; format: cell-based
Experimental: PC12 cells were stored in 75 cm^2 culture flasks on DMEM containing 5% bovine foetal serum and 10% horse serum, with 50 μg/ml gentamicin. Cells were incubated at 37° C. in 5% CO2. To induce differentiation cells were transferred at a density of 1×10^4 to polylysine covered 96 well plates in NGF supplemented DMEM media for 7 days, with medium replacement every 2-3 days. After differentiation cells were incubated with peptidic GHS analog compounds, at different concentrations for 72 h. Cell survival and proliferation was determined using the Promega non-radioactive cytotoxicity proliferation assay, Cell Titer 96, based in the conversion of 3-(4,5-dimethylthiazole-2-yl)-2,5-diphenyltetrazolium bromide (MTT) in to a spectrophotometrically detectable product. After deprivation of NGF medium is removed and 15 μl of the DMEM dissolved dye is added, after 4 hours of 37° C. incubation 100 μl of the stopping solution is added and absorbance is measured at 570 nm

[3] = tested on: primary cultures of granular cerebellum cells; format: cell-based, Wistar rats
Experimental: Primary cultures of granular cerebellum cells were obtained from 7-9 days Wistar rats. After a rapid dissection, rat cerebellums were submerged in a cold solution and meningeal membranes were removed, each organ was transferred to a 2-3 ml fresh medium solution and finely sliced. Cells were dissociated using a Pasteur pipette and filtered through a nylon […] membrane (Falcon, Franklin Lakes, N.J.). The number of viable cells was determined by cell counting in a hematocytometer with tripan blue as a marker. Cells were cultured on polylysine covered 96 well plates at a density of 6250 cells in […] final volume. Cultures were kept at 37° C. in 5%. CO2 after 24 h, 10 μM of cytosine arabinofuranose (AraC; Sigma) was added to inhibit the proliferation of non-neuronal cells. The capacity of neural damage prevention was tested adding 500 μM hydrogen peroxide in different concentrations of peptidic GHS analog compounds, Cell survival was determined using the Promega non-radioactive cytotoxicity proliferation assay, Cell Titer 96 (Promega).

[4] = tested on: Litopenaeus vanamei post-larvae; assay: Growth of shrimp post-larvae fed Artemia-bioencapsulated compounds; format: in vivo; details: Artemia bioencapsulated (10 mh/L, one hour), fed four times a day for one month
Experimental: The peptidic GHS analogs were bioencapsulated in Artemia to be fed to Litopenaeus vanamei post-larvae. For the encapsulation the compounds were added in a 10 mh/L left for an hour, harvested and washed. The animals were fed four times a day for one month while the control group was fed with BSA encapsulated Artemia The effect was measured with an optical micrometer and weighing the animals in a 0.1 mg precision scale.

[5] = tested on: IGF-I mRNA; assay: IGF-I mRNA in liver and GH level of intraperitoneally injected tilapias; format: in vivo, tilapia; details: liver of intraperitoneally injected tilapias
Experimental: IGF-I mRNa was determined in the liver of intraperitoneally injected tilapias monitoring also the GH level time course, showing the peptidic GHS analog compounds as able to stimulate in fish the GH levels in the bloodstream and at incrementing the IGF-I mRNA levels after the injection of the compounds as shown in table 4.

[6] = tested on: Post-larvae of Litopenaeus vanamei; assay: Growth stimulation in shrimps by dietary supplementation; format: in vivo; details: compound at 1% in post-larvae crustacean diet
Experimental: The peptidic GHS analogs were included at 1% in a post-larvae crustacean diet. Post-larvae of Litopenaeus vanamei were fed with the aforementioned diet in parallel with a control group with 1% BSA addition. The effect was measured with an optical micrometer and weighing the animals in a 0.1 mg precision scale.

[7] = tested on: Litopenaeus vanamei; assay: Growing of shrimp larvae by dipping in solution of the compounds; format: in vivo; details: four dips of one hour every three days, 0.1 g/L
Experimental: Shrimp larvae were subjected two four dips, for one hour every three days with different peptidic GHS analogs at 0.1 g/L. The control group was subjected to the same frequency of dipping with 1 mg/L BSA.

[8] = tested on: tilapias; assay: Growth acceleration on juvenile tilapias treated intraperitoneally; format: in vivo; details: juvenile tilapia, ip 0.1 μg/g twice a week, three weeks
Experimental: The compounds were dissolved in a sodium phosphate (PBS) buffer solution and injected twice a week, during three weeks at 0.1 μg/g of humid fish weight (gbw). Compounds were applied individually to a group of 10 male tilapias with an average weight of 60.41±10.36 g and a control group with an average weight of 60.58±19.67 g was receiving PBS only as a control, measuring the average weight every week, all animals in the experiment were labelled with microchips (Stoelting Co. Wood Dale, USA.). for proper identification.

[9] = tested on: lysozyme; assay: Lysozyme levels in tilapia larvae treated by immersion; format: in vivo, Oreochromis sp.; details: immersion 100 μg/L
Experimental: as §1
During this experiment lysozyme levels were also monitored and an increase of this immunity marker was obtained in the treated animals as shown in table 8.

[10] = differentiated PC12 cells, 72 h incubation, MTT, read-out: IC50 during the NGF deprivation induced neuronal death
[11] = 500 μM hydrogen peroxide, rat cerebellum granular cells, read-out: IC50 during the induced neuronal damage by Hydrogen Peroxide addition to a primary culture of neurons

Row | Sequence | Weight Inc. (%), control group growing = 100% [1] | IC50 [2, 10] | IC50 [3, 11] | Size Inc. (%), control group growing = 100% [4] | Normalized IGF-I mRNA levels to a non related synthetic peptide control group [5] | Size Inc. (%), control group growing = 100% [6] | Size Inc. (%), control group growing = 100% [7] | Weight Inc. (%), control group growing = 100% [7] | Weight Inc. (%), control group growing = 100% [8] | Lysozyme levels of the treated animals relative to the control group [9] | IC50 ([2]; 72 h) | IC50 [3]
1 | HSKGYDLDH [Compound A227, L-amino acid peptide with internal side-chain cycle, SEC; ID NO: 7] | 140.6% | 3.06 µM | 2.26 µM | 140.0% | 1.28 | 139.0% | 118.5% | 128.6% | 139.9% | 1.52 |  | 
2 | SSDFKLYWG [Compound A224, L-amino acid peptide with internal side-chain cycle, SEC; ID NO: 4] | 130.0% | 2.37 µM | 3.2 µM | 130.0% | 1.41 | 131.2% | 116.0% | 127.0% | 132.7% | 1.37 |  | 
3 | STDFKPFAI [Compound A226, STDFKPFAI] | 120.4% |  |  | 132.0% | 1.13 | 130.4% | 112.2% | 120.1% | 122.4% | 1.17 | 4.87 µM | 3.58 µM
